Results as given in ChEMBL document CHEMBL1201862, “PubChem BioAssay data set” (2004).
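Exposure lasted 48 hours, with cells grown in 96-well plates and compounds tested at five concentrations. GI50 is the concentration that inhibits growth by half.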 Calls of active or inactive are those of the source. Rule as the data show it: active = GI50 up to about 1.1 µM and inactive = higher.

Tests used:
Assay in all cases: NCI-60 cell line screen, 48 h
[1] = tested on: DLD-1
[2] = tested on: EKVX
[3] = tested on: HCT-116
[4] = tested on: HCT-15
[5] = tested on: IGROV-1
[6] = tested on: K562
[7] = tested on: NCI-H226
[8] = tested on: NCI-H23
[9] = tested on: NCI-H460
[10] = tested on: SF-268
[11] = tested on: SK-OV-3
[12] = tested on: SN12C
[13] = tested on: SNB-75
[14] = tested on: UACC-257
[15] = tested on: RXF 393
[16] = tested on: Hs-578T
[17] = tested on: MDA-MB-435
[18] = tested on: NCI/ADR-RES
[19] = tested on: PC-3
[20] = tested on: T47D

O=Cc1cc(O)c(O)c(O)c1-c1c(C=O)cc(O)c(O)c1O
GI50 [1]: > 100 µM (inactive)
GI50 [2]: > 100 µM (inactive)
GI50 [3]: > 100 µM (inactive)
GI50 [4]: > 100 µM
GI50 [5]: > 100 µM (inactive)
GI50 [6]: 67.6 µM (inactive)
GI50 [7]: > 100 µM (inactive)
GI50 [8]: > 100 µM (inactive)
GI50 [9]: > 100 µM (inactive)
GI50 [10]: > 100 µM (inactive)
GI50 [11]: > 100 µM (inactive)
GI50 [12]: > 100 µM (inactive)
GI50 [13]: > 100 µM (inactive)
GI50 [14]: > 100 µM (inactive)

COc1ccc([C@H]2[C@@H]3CCc4ccccc4C3=NN2C(N)=S)cc1OC
GI50 [1]: 53 µM (inactive)
GI50 [2]: 40.1 µM (inactive)
GI50 [3]: 47.9 µM (inactive)
GI50 [4]: 40.9 µM
GI50 [5]: 69.3 µM (inactive)
GI50 [6]: 22.4 µM (inactive)
GI50 [7]: 45.6 µM (inactive)
GI50 [8]: 34.6 µM (inactive)
GI50 [9]: 44.1 µM (inactive)
GI50 [15]: 39.7 µM (inactive)
GI50 [10]: 85.9 µM (inactive)
GI50 [11]: > 100 µM (inactive)
GI50 [12]: > 100 µM (inactive)
GI50 [14]: 45.5 µM (inactive)

Cc1ccc(S(=O)(=O)n2ccn3c(=O)cc(C)nc23)cc1
GI50 [2]: > 10 µM (inactive)
GI50 [3]: > 10 µM (inactive)
GI50 [4]: > 10 µM
GI50 [16]: 8.59 µM (inactive)
GI50 [5]: > 10 µM (inactive)
GI50 [6]: > 10 µM (inactive)
GI50 [17]: > 10 µM (inactive)
GI50 [7]: > 10 µM (inactive)
GI50 [8]: > 10 µM (inactive)
GI50 [9]: > 10 µM (inactive)
GI50 [18]: > 10 µM (inactive)
GI50 [19]: > 10 µM (inactive)
GI50 [15]: > 10 µM (inactive)
GI50 [10]: > 10 µM (inactive)
GI50 [11]: > 10 µM (inactive)
GI50 [12]: > 10 µM (inactive)
GI50 [13]: > 10 µM (inactive)
GI50 [20]: > 10 µM (inactive)
GI50 [14]: > 10 µM (inactive)

O=c1ccc(=O)n(-c2ccccc2)[nH]1
GI50 [2]: > 100 µM (inactive)
GI50 [3]: > 100 µM (inactive)
GI50 [4]: > 100 µM
GI50 [16]: > 100 µM (inactive)
GI50 [5]: > 100 µM (inactive)
GI50 [6]: > 100 µM (inactive)
GI50 [17]: > 100 µM (inactive)
GI50 [7]: > 100 µM (inactive)
GI50 [8]: > 100 µM (inactive)
GI50 [9]: > 100 µM (inactive)
GI50 [18]: > 100 µM (inactive)
GI50 [19]: > 100 µM (inactive)
GI50 [15]: > 100 µM (inactive)
GI50 [10]: > 100 µM (inactive)
GI50 [11]: > 100 µM (inactive)
GI50 [12]: > 100 µM (inactive)
GI50 [13]: > 100 µM (inactive)
GI50 [20]: > 100 µM (inactive)
GI50 [14]: > 100 µM (inactive)

CC/C(CC(=O)CCC(=O)Nc1c(C)cccc1C)=N\NC(=O)NN
GI50 [1]: > 100 µM (inactive)
GI50 [2]: > 100 µM (inactive)
GI50 [3]: > 100 µM (inactive)
GI50 [4]: > 100 µM
GI50 [5]: > 100 µM (inactive)
GI50 [6]: > 100 µM (inactive)
GI50 [8]: > 100 µM (inactive)
GI50 [9]: > 100 µM (inactive)
GI50 [15]: > 100 µM (inactive)
GI50 [10]: > 100 µM (inactive)
GI50 [12]: > 100 µM (inactive)
GI50 [14]: > 100 µM (inactive)

CC1=CCC2(C#N)CCC1C2=O (stereo not given)
GI50 [1]: > 100 µM (inactive)
GI50 [2]: > 100 µM (inactive)
GI50 [3]: > 100 µM (inactive)
GI50 [4]: > 100 µM
GI50 [5]: > 100 µM (inactive)
GI50 [6]: > 100 µM (inactive)
GI50 [7]: > 100 µM (inactive)
GI50 [8]: > 100 µM (inactive)
GI50 [9]: > 100 µM (inactive)
GI50 [10]: > 100 µM (inactive)
GI50 [11]: > 100 µM (inactive)
GI50 [12]: > 100 µM (inactive)
GI50 [14]: > 100 µM (inactive)

O=C(O)c1ccc2c(c1)CC1(C2)Cc2cc3c(cc2C1=O)CCC3 (stereo not given)
GI50 [2]: > 100 µM (inactive)
GI50 [3]: > 100 µM (inactive)
GI50 [4]: 79.6 µM
GI50 [16]: > 100 µM (inactive)
GI50 [5]: > 100 µM (inactive)
GI50 [6]: > 100 µM (inactive)
GI50 [17]: > 100 µM (inactive)
GI50 [7]: > 100 µM (inactive)
GI50 [8]: > 100 µM (inactive)
GI50 [9]: > 100 µM (inactive)
GI50 [18]: > 100 µM (inactive)
GI50 [19]: > 100 µM (inactive)
GI50 [15]: 73.5 µM (inactive)
GI50 [10]: 46.8 µM (inactive)
GI50 [11]: > 100 µM (inactive)
GI50 [12]: > 100 µM (inactive)
GI50 [13]: 56 µM (inactive)
GI50 [20]: 34.4 µM (inactive)
GI50 [14]: > 100 µM (inactive)

CCC(=O)N1NC(=O)C(CC)(CC)C1=O
GI50 [2]: > 100 µM (inactive)
GI50 [3]: > 100 µM (inactive)
GI50 [4]: > 100 µM
GI50 [16]: 83 µM (inactive)
GI50 [5]: > 100 µM (inactive)
GI50 [6]: > 100 µM (inactive)
GI50 [17]: > 100 µM (inactive)
GI50 [7]: > 100 µM (inactive)
GI50 [8]: > 100 µM (inactive)
GI50 [9]: > 100 µM (inactive)
GI50 [18]: > 100 µM (inactive)
GI50 [19]: > 100 µM (inactive)
GI50 [15]: > 100 µM (inactive)
GI50 [10]: > 100 µM (inactive)
GI50 [11]: > 100 µM (inactive)
GI50 [12]: > 100 µM (inactive)
GI50 [13]: 36.8 µM (inactive)
GI50 [20]: > 100 µM (inactive)
GI50 [14]: > 100 µM (inactive)

O=C(O)C1=NN(c2ccc(S(=O)(=O)O)cc2)C2(C1)C(Cl)C(=O)N2c1nc2ccccc2s1 (stereo not given)
GI50 [2]: 16 µM (inactive)
GI50 [3]: 16.5 µM (inactive)
GI50 [4]: 20.6 µM
GI50 [16]: 47.6 µM (inactive)
GI50 [5]: 7.83 µM (inactive)
GI50 [6]: 22.1 µM (inactive)
GI50 [17]: 16.2 µM (inactive)
GI50 [7]: 16.5 µM (inactive)
GI50 [8]: 14.4 µM (inactive)
GI50 [9]: 16 µM (inactive)
GI50 [18]: 23.9 µM (inactive)
GI50 [19]: 16.6 µM (inactive)
GI50 [15]: 16.1 µM (inactive)
GI50 [10]: 17.9 µM (inactive)
GI50 [11]: 15.6 µM (inactive)
GI50 [12]: 17.8 µM (inactive)
GI50 [13]: 13.5 µM (inactive)
GI50 [20]: 20.5 µM (inactive)
GI50 [14]: 17.2 µM (inactive)

COc1cc([C@H]2CC(=O)C[C@@H](c3cc(OC)c(OC)c(OC)c3)C23C(=O)c2ccccc2C3=O)cc(OC)c1OC
GI50 [2]: 91.8 µM (inactive)
GI50 [3]: > 100 µM (inactive)
GI50 [4]: > 100 µM
GI50 [16]: > 100 µM (inactive)
GI50 [5]: > 100 µM (inactive)
GI50 [6]: > 100 µM (inactive)
GI50 [17]: > 100 µM (inactive)
GI50 [7]: > 100 µM (inactive)
GI50 [8]: > 100 µM (inactive)
GI50 [9]: > 100 µM (inactive)
GI50 [18]: > 100 µM (inactive)
GI50 [19]: > 100 µM (inactive)
GI50 [15]: > 100 µM (inactive)
GI50 [10]: > 100 µM (inactive)
GI50 [11]: > 100 µM (inactive)
GI50 [12]: > 100 µM (inactive)
GI50 [13]: 45.1 µM (inactive)
GI50 [20]: > 100 µM (inactive)
GI50 [14]: > 100 µM (inactive)

Cc1[nH]c(-c2ccccc2)c(O)c1C(=O)OC12CC3CC(CC(C3)C1)C2
GI50 [2]: 13.8 µM (inactive)
GI50 [3]: 16.7 µM (inactive)
GI50 [4]: 11.9 µM
GI50 [16]: 10.3 µM (inactive)
GI50 [5]: 14.1 µM (inactive)
GI50 [6]: > 100 µM (inactive)
GI50 [17]: 15 µM (inactive)
GI50 [7]: 14.1 µM (inactive)
GI50 [8]: 16.3 µM (inactive)
GI50 [9]: 7.82 µM (inactive)
GI50 [18]: 13.7 µM (inactive)
GI50 [19]: 15.5 µM (inactive)
GI50 [15]: 6.73 µM (inactive)
GI50 [10]: 13.9 µM (inactive)
GI50 [11]: 14.7 µM (inactive)
GI50 [12]: 16.4 µM (inactive)
GI50 [13]: 10.8 µM (inactive)
GI50 [20]: 15.8 µM (inactive)
GI50 [14]: 16.5 µM (inactive)

Clc1ccc(OCc2nnc3sc(-c4ccc(-c5ccc(Cl)cc5Cl)o4)nn23)cc1
GI50 [2]: > 100 µM (inactive)
GI50 [3]: > 100 µM (inactive)
GI50 [4]: > 100 µM
GI50 [16]: > 100 µM (inactive)
GI50 [5]: > 100 µM (inactive)
GI50 [6]: > 100 µM (inactive)
GI50 [17]: > 100 µM (inactive)
GI50 [7]: > 100 µM (inactive)
GI50 [8]: > 100 µM (inactive)
GI50 [9]: > 100 µM (inactive)
GI50 [18]: > 100 µM (inactive)
GI50 [19]: > 100 µM (inactive)
GI50 [15]: 16.4 µM (inactive)
GI50 [10]: > 100 µM (inactive)
GI50 [11]: > 100 µM (inactive)
GI50 [12]: > 100 µM (inactive)
GI50 [13]: 7.85 µM (inactive)
GI50 [20]: > 100 µM (inactive)
GI50 [14]: > 100 µM (inactive)
